Results on ten compounds are retold here after article PMC6323793 (BMC Cancer, 2019).

In experiment [1] the target is T1, recombinant human Cdc25B (Homo sapiens, UniProt P30305).
T1 construct: purchased CycLex CY-1353
T1 sequence (P30305 1-580): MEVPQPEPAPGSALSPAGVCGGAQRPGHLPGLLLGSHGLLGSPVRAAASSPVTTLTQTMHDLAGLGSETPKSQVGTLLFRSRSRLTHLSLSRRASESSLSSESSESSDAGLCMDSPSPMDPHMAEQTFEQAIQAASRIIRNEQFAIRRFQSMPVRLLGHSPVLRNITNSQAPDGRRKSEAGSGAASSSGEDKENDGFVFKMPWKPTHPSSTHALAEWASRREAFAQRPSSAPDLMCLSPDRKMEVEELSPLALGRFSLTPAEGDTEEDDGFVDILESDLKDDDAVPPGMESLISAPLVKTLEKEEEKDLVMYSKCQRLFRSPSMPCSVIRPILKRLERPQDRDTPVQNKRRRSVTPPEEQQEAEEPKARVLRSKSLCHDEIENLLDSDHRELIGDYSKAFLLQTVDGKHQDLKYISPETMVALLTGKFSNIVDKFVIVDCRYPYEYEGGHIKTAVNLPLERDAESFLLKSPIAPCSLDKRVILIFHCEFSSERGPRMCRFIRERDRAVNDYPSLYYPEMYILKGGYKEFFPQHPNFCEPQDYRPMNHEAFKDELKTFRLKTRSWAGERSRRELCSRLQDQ
In words: Cdc25B fluorometric phosphatase assay (OMFP substrate). The class given is biochemical. The procedure:
Then, 25 μL of stop solution was added. Fluorescence was measured at an excitation wavelength of 485 nm and an emission wavelength of 530 nm using a fluorescence microplate reader (BioTek Instruments, Inc., Winooski, VT, USA). Menadione is a quinone-type inhibitor of Cdc25s that was used as a positive control here.

Experiment [2] has as its target T2, recombinant human Cdc25C (Homo sapiens, UniProt P30307).
T2 construct: purchased CycLex CY-1354
T2 sequence (P30307 1-473): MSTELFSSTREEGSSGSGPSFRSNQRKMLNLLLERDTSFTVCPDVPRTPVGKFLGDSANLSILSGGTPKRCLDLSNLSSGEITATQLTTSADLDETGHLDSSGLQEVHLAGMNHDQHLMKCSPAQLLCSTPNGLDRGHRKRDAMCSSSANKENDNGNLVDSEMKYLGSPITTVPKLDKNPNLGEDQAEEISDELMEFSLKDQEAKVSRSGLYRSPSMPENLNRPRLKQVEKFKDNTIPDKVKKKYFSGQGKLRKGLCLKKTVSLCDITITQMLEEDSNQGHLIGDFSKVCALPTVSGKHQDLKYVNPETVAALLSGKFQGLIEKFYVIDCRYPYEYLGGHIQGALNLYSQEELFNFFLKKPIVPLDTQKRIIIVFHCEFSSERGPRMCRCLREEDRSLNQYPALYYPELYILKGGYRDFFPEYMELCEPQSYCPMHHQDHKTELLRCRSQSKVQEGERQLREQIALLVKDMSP
Put plainly: Cdc25C fluorometric phosphatase assay (OMFP substrate). The class given is biochemical. The procedure: (§1) In summary, dual-specificity phosphatase activity was measured in a 96-well microtiter plate using O-methylfluorescein phosphate (OMFP) as a substrate. 5 μL (0.1 μg/μL) of purified recombinant Cdc25s (Cdc25A, -B and -C) was mixed with 40 μL of assay mixture and incubated with 5 μL of the test compound at various concentrations in a well. Then, 25 μL of stop solution was added. […] Menadione is a quinone-type inhibitor of Cdc25s that was used as a positive control here.

In experiment [3] the target is T3, recombinant human Cdc25A (Homo sapiens, UniProt P30304).
T3 construct: purchased CycLex CY-1352
T3 sequence (P30304 1-524): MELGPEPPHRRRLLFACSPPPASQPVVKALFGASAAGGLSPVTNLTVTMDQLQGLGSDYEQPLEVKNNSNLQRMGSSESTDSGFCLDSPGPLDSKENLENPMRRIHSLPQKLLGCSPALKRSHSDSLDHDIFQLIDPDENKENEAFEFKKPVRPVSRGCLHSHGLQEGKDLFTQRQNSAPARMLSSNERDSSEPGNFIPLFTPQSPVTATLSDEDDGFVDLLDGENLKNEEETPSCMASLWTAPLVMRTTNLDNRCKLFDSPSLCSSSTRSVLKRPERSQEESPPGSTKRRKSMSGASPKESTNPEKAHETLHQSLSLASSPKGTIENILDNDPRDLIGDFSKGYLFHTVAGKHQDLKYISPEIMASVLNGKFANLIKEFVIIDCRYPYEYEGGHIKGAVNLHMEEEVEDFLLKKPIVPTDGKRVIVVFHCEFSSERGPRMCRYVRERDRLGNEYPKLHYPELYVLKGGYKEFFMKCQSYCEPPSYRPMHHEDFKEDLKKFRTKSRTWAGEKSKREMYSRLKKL
In words: Cdc25A fluorometric phosphatase assay (OMFP substrate). It counts as biochemical. The procedure:
as §1

For experiment [4], the system named is tsFT210 cells. In words: MTT anti-proliferation assay, tsFT210. To be noted: Mus musculus, tsFT210, 48 h, read-out: IC50 tsFT210. For orientation: Tetrazolium dyes change colour on reduction, which living cells bring about.
Experiment [5] relates to MCF-7 cells. In words: MTT anti-proliferation assay, MCF-7. To be noted: Homo sapiens, MCF7, 48 h, read-out: IC50 MCF-7.
Experiment [6] concerns HeLa cells. Put plainly: MTT anti-proliferation assay, HeLa. The note with it: Homo sapiens, 48 h, read-out: IC50 HeLa.
Experiment [7] relates to tsFT210 cells. In words: Cell cycle analysis by flow cytometry. The class given is cell-based, mouse. The note with it: synchronized tsFT210 cells released at 32 °C, treated for 6 h. The procedure: Cell cycle analysis was performed as described previously. […]. The harvested cells were stained with staining buffer (50 μg/ml propidium iodide, 0.1% sodium citrate and 0.2% NP-40) and analysed by Flow Cytometry (BD Biosciences). A final concentration of 0.5% DMSO was used for all compounds and as a negative control. Nocodazole, a potent mitotic blocker that arrests cells at the G2/M phase, was used as a positive control at a concentration of 100 nM.
On the technique in general: A flow cytometer gives signals particle by particle.

The test system of experiment [8] is K562 xenograft tumour. Put plainly: K562 xenograph tumour model in mice. It counts as in vivo, mouse. The procedure:
(§2) The mouse model was constructed according to our previous work. Balb/c mice (female, 5 weeks old), purchased from Shanghai SLAC Laboratory Animal Co., LTD (Shanghai, China), were subcutaneously injected into a 100 μL K562 cell suspension (5 × 10^6/mL, PBS) in the right flank of mice. […] The long and short dimensions of tumour size were measured by a digital calliper at days 1, 4, 8, 11, 16, 21, and 24 after treatment. The volume was calculated with the formula (long dimension) × (short dimension)^2/2. The mice were euthanized 2 days after the last treatment by the method of cervical dislocation.

For experiment [9], the system named is CDK1 (tyrosine 15 phosphorylation) in tsFT210 cells. In words: Western blot of CDK1 phosphorylation status in cells. It counts as cell-based, mouse. To be noted: cells in G2/M phase, 1 μM, 5 μM and 25 μM, 4 h. The procedure:
(§3) The phosphorylation status of CDK1 was analysed by Western blotting as described in our previous work. […] The protein concentration in cell lysates was confirmed by the Bradford method. Fifty micrograms of protein per lane was resolved on 10% SDS polyacrylamide gels, and the bands were transferred to PVDF membranes (Millipore). Nonspecific reactivity was blocked by 5% non-fat milk prepared in TBST (10 mM Tris, 150 mM NaCl, 0.05% Tween-20, pH 7.5) at room temperature for 1 h. The protein signals were captured with primary antibodies and the secondary antibodies according to the manufacturers’ instructions. In this process, the protein β-actin was used to normalize target protein. All antibodies used in this paper were purchased from Cell Signaling Technology (Inc, China).
Background: Immunoblotting shows a protein as a band on a membrane.

The subject of experiment [10] is tsFT210 cells. In words: Intracellular ROS assay (DCFH-DA) in tsFT210 cells. The note with it: tsFT210 cells synchronized at G2 phase, 5 μM and 25 μM, 4 h, compared with control cells. It counts as cell-based, mouse. The procedure:
(§4) Reactive oxygen species (ROS) were detected with the fluorescent probe 2′,7′-dichlorofluorescin diacetate (DCFH-DA) as described by others. Briefly, MCF-7 cells or tsFT210 (synchronized at G2 phase) cells were plated in 96-well plates and loaded with 20 μM DCFH-DA for 30 min at 37 °C in culture medium. […] Untreated cells were used as control. Fluorescence was measured using a fluorescence microplate reader (BioTek Instruments, excitation wavelength: 485 nm, emission wavelength: 528 nm). The ROS levels were expressed as RFU (relative fluorescence unit).

Experiment [11] relates to phosphorylated CDK1 in primary tumour tissues. In words: Phosphorylated CDK1 in tumour tissue of K562-bearing mice. It counts as in vivo, mouse. The note with it: especially the 5 and 10 mg/kg groups, vs control group. The procedure: as §3, §2
Experiment [12] has as its system MCF-7 cells. In words: Intracellular ROS assay (DCFH-DA) in MCF-7 cells. It counts as cell-based. To be noted: 5 μM and 25 μM, 4 h, compared with control cells. The procedure: as §4
The test system of experiment [13] is K562 cells. Put plainly: MTT anti-proliferation assay, K562. The note with it: Homo sapiens, K562, 48 h, read-out: IC50 K562.
The mark [14] stands for this setting: recombinant human phosphatase, OMFP substrate, mean ± S.E.M., read-out: IC50 Cdc25C.
The mark [15] stands for this setting: recombinant human phosphatase, OMFP substrate, mean ± S.E.M., read-out: IC50 Cdc25A.
Where [16] appears, read: recombinant human phosphatase, OMFP substrate, mean ± S.E.M., read-out: IC50 Cdc25B.

SMILES strings stand for the structures. Where two headings read alike, the source gives them in different places.

For the compound `CC(=O)O[C@H](CC=C(C)C)C1=CC(=O)c2c(O)ccc(O)c2C1=O` [Acetylshikonin], the 50% inhibitory concentration (IC50) (as a rule, the concentration that gives 50% inhibition) was found to be 3.87 ± 0.68 µM in [1], 4.67 ± 0.34 µM in experiment [2] and 3.92 ± 0.66 µM in [3].
On the same counts, the results for `CC(C)=CCCC1=CC(=O)c2c(O)ccc(O)c2C1=O` [Deoxyshikonin] are 7.32 ± 0.45 µM, 6.33 ± 0.65 µM and 3.22 ± 0.76 µM.
For the compound `COc1cccc2c1C(=O)c1c(O)c3c(c(O)c1C2=O)C[C@@](O)(C(=O)CO)C[C@@H]3O[C@H]1C[C@H](N)[C@H](O)[C@H](C)O1` [Doxorubicin, reference compound], the values for the IC50 in experiment [4], in [5] and in [6] were 0.56 ± 0.14 µM, 0.28 ± 0.03 µM and 0.43 ± 0.06 µM, respectively.
In the case of `CC(C)=CC[C@@H](OC(=O)C(C)C)C1=CC(=O)c2c(O)ccc(O)c2C1=O` [Isobutylshikonin], the half-maximal inhibitory concentration (IC50) came to 5.89 ± 0.43 µM in [2] (setting [14]) and 6.79 ± 1.02 µM in experiment [3] (setting [15]).
On the same counts, the results for `CC(C)=CCC(OC(=O)CC(C)C)C1=CC(=O)c2c(O)ccc(O)c2C1=O` (centres unmarked) [Isovalerylshikonin] are 11 ± 0.97 µM and 9.53 ± 0.78 µM.
As to `COC(=O)Nc1nc2ccc(C(=O)c3cccs3)cc2[nH]1` [Nocodazole, reference compound], the “Effect on cell cycle progression” value in [7] is listed as “arrested the cells at the G2/M phase”.
Consider `CC(C)=CC[C@@H](O)C1=CC(=O)c2c(O)ccc(O)c2C1=O` [Shikonin], for which, in experiment [8] (K562-bearing mice, 1, 5, or 10 mg/kg every other day, 21 days, vs vehicle), the Tumour growth result is listed as “concentration-dependently inhibited tumour growth”. Besides, in experiment [8] (K562-bearing mice, 1, 5, or 10 mg/kg, vs control group), the “Survival (Kaplan-Meier)” value is “prolonged”. Further, the 50% inhibitory concentration (IC50) was determined as 4.78 ± 0.18 µM in experiment [2]; 8.97 ± 0.87 µM in experiment [4]; 2.14 ± 0.21 µM in experiment [3]; 6.82 ± 0.76 µM in experiment [5]; 9.56 ± 1.03 µM in experiment [6]; 6.15 ± 0.46 µM in [13]. Moreover, in experiment [7], the “Effect on cell cycle progression” value is recorded as “blocked at the G2/M phase in a concentration-dependent manner”. Moreover, the “Phosphorylation status of CDK1 (Western blot)” value in experiment [9] is recorded as “induced an accumulation of the tyrosine 15-phosphorylated form of CDK1”. Moreover, the “Intracellular ROS” value in [10] and in experiment [12] was “increased significantly” in each case. Further, the “Protein levels of phosphorylated CDK1 in primary tumour tissues” value in experiment [11] is on record as “significantly increased”.
Take `CC1=CC(=O)c2ccccc2C1=O` [menadione, reference compound]: the concentration for half-maximal inhibition (IC50) worked out at 5.37 ± 0.45 µM in experiment [1], 5.13 ± 0.24 µM in experiment [2] and 4.12 ± 0.87 µM in experiment [3].
Turning to `CCC(C)C(=O)O[C@H](CC=C(C)C)C1=CC(=O)c2c(O)ccc(O)c2C1=O` (stereo partly drawn) [α-Methyl-η-butylshikonin], the figures for the IC50 in [1] (setting [16]), in [2] (setting [14]) and in experiment [3] (setting [15]) were 14.3 ± 1.27 µM, 13.5 ± 1.45 µM and 11.2 ± 1.45 µM, respectively.
On to `CC(C)=CCC(OC(=O)C=C(C)C)C1=CC(=O)c2c(O)ccc(O)c2C1=O` (stereo not drawn) [β,β-Dimethylacrylshikonin], for which the IC50 in experiment [1] (setting [16]) was 8.56 ± 0.67 µM; in experiment [3] (setting [15]), 4.67 ± 0.85 µM.
